Laboratory results from ChEMBL document CHEMBL1134875, “Binding modes of two novel dinucleotide inhibitors of HIV-1 integrase” (Bioorg Med Chem Lett, 2002).

What was measured:
[1] = biological target: T1, Human immunodeficiency virus type 1 integrase (Human immunodeficiency virus 1, UniProt Q7ZJM1); experiment: Compound was tested for the inhibition HIV integrase 3'-processing activity
[2] = biological target: T1, Human immunodeficiency virus type 1 integrase; experiment: Compound was tested for the inhibition HIV integrase strand transfer activity

T1 sequence (Q7ZJM1 whole entry): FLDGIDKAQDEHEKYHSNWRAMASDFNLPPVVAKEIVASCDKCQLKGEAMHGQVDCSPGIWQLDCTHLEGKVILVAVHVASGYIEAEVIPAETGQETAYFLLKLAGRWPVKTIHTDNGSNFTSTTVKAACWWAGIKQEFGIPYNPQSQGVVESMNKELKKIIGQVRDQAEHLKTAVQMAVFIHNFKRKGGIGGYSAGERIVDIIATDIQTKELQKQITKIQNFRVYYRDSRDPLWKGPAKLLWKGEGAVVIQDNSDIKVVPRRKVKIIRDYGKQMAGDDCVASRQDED

## Nc1ccn([C@H]2C[C@@H](O)[C@@H](COP(=O)(O)O[C@@H]3[C@H](COP(=O)(O)O)OC[C@@H]3n3cnc4c(N)ncnc43)O2)c(=O)n1
[1]
  IC50: 19 µM
[2]
  IC50: 25 µM
